Laboratory results as given in patent US11203754B2, “Microrna compositions and methods of making and using same” (Advanced ReGen Medical Technologies, LLC, priority 2016, dated 2021).
One block for each compound: values may come before it.

Key:
SNORD68 = experiment: Exosomal RNA (ExoRNA) level, SNORD68, with inhibitors; assay type: cell-based; settings: BCI-137 10 μM, GW4869 3.5 μM; NONE = 1
Description: (§1) Exosomes were collected and quantified to determine the effects of inhibitors on exosome production while RNA extracted from the exosomes were analyzed to determine exosome depletion and levels of RNA depletion.
(§2) SNORD68 and SNORD95 are small nucleolar RNAs.

CD34+ cells [1] = experiment: Effect of inhibitor on CD34+ differentiation potential and restoration; assay type: cell-based
Text: as §2

miRNAs in exosomes = experiment: miRNA depletion in exosomes harvested from the heterochronic culture; assay type: cell-based
Description: as §1, §2

[2] = test system: adult stem cells in transwell culture; experiment: Exosome production in transwell cultures with exosome inhibitors; assay type: cell-based; settings: BCI-137 10 μM, GW4869 3.5 μM, added Day 0 and Day 3, NONE = 710
Description: A series of transwell experiments were carried out by placing adult stem cells of a donor subject (i.e., donor cells) in the upper chamber of a transwell assembly while the adult stem cells of a receiver subject (i.e. receiver cells) were placed in the lower chamber. Referring to FIG. 2, the transwell culture 400 comprised an insert 410 having a permeable surface that allows the donor cells to uptake and secrete molecules on the basal and/or apical surfaces of the transwell. The transwell insert 410 comprised a permeable membrane with a 0.4 μm pore size. At least a portion of the donor cell sample 420 was applied to the transwell insert 410 while the receiver cell sample 430 was positioned within the lower compartment of the transwell culture with an appropriate amount of culture media.
as §1

CD34+ cells [3] = experiment: Effect of inhibitors on cell function (total cell vitality, CD34+ cell vitality, CD34+ cell expansion); settings: inhibitor added to transwell culture
Description: (§3) To the transwell cultures was added either a pharmacological inhibitor of exosome biogenesis GW4869 (3.5 μM) or an inhibitor of exosome packaging BCI-137 (10 μM). […] Inhibitors were added to the transwell cultures upon initial seeding (Day 0) and again at Day 3.
(§4) Further analysis of the effect of the inhibitors on cell function was assessed by determining the total cell vitality, the CD34+ cell vitality and the extent of CD34+ cell expansion.

SNORD95 = experiment: Exosomal RNA (ExoRNA) level, SNORD95, with inhibitors; assay type: cell-based; settings: BCI-137 10 μM, GW4869 3.5 μM; NONE = 1
Description: as §1, §2

CD34+ cells [4] = test system: CD34+ cells
Description: as §3, §4

CD34+ stem cell = experiment: microRNA nucleofection into mature blood cells: CD34+ clonogenicity (CFU-GM); assay type: cell-based, human; settings: Table 8 Experiment #1; total 60 nM into mature blood cells; siRNA vehicle = 20, No Treatment = 10
Description: Candidate microRNAs involved in facilitating adoptive cellular restoration therapy were miR-146a, miR-103a, miR-106a and miR-19a. Combinations of candidate microRNAs were nucleofected at a total concentration of 60 nM into mature blood cells using the CD34+ cell human nucleofector kit (Lonza) and the human CD34+ cell protocol, and effect on CD34+ stem cell vitality and clonogenicity were evaluated compared to siRNA vehicle control. Further, the microRNA combination of miR-103a, miR-106b and miR-19a were nucleofected at a total concentration of 90 nM into mature blood cells using the P3 Primary Cell 4D-Nucleofector X Kit (Lonza) and the human T cell high efficiency protocol, and effect on T cell activation and cell-mediated cytotoxicity were evaluated compared to siRNA vehicle control. Additional candidate microRNAs involved in facilitating adoptive cellular restoration therapy identified were miR-1303, miR-7851-3p, miR-223, miR-4497, miR-619-5p and miR-1273f. Combinations of these additional candidate microRNAs were nucleofected at a total concentration of 60 nM into mature blood cells using the CD34+ cell human nucleofector kit (Lonza) and the human CD34+ cell protocol, and effect on CD34+ clonogenicity was evaluated compared to siRNA vehicle control.

effect on the juvenile or mature cell health (CD34+ cells [3]): no effect
Compound: CC(NS(=O)(=O)c1ccc2[nH]c(=O)c(=O)[nH]c2c1)C(=O)O (stereo not shown) [BCI-137]
Fold Change in ExoRNA SNORD68 (SNORD68): 0.24 Fold Change
restorative effects of adoptive cell restoration (CD34+ cells [1]; inhibition by BCI-137): blocked the restorative effects
differentiation in CD34+ heterochronic cells (CD34+ cells [1]; inhibition with BCI-137): decreased
differentiation potential in the CD34+ mature cells (CD34+ cells [1]; inhibition with BCI-137): increased
depletion of miRNAs in exosomes (miRNAs in exosomes): effectively depleted miRNAs
Exosome Production (# exosomes × 10^8) [2]: 604 # exosomes × 10^8
Fold Change in ExoRNA SNORD95 (SNORD95): 0.33 Fold Change

Compound: O=C(/C=C/c1ccc(/C=C/C(=O)Nc2ccc(C3=NCCN3)cc2)cc1)Nc1ccc(C2=NCCN2)cc1 [GW4869]
Fold Change in ExoRNA SNORD68 (SNORD68): 0.43 Fold Change
depletion of miRNAs in exosomes (miRNAs in exosomes): effectively depleted miRNAs
Exosome Production (# exosomes × 10^8) [2]: 558 # exosomes × 10^8
toxicity to CD34+ cells (CD34+ cells [4]): appeared toxic
Fold Change in ExoRNA SNORD95 (SNORD95): 0.67 Fold Change

Compound: miR-223: isolated microRNA miR-223-5p (SEQ ID NO:5) (CGUGUAUUUGACAAGCUGAGUU; listed as RNA, chemistry not given here; listed as Homo sapiens)
CD34+ Differentiation (# CFU-GM) (CD34+ stem cell): 10 # CFU-GM

Compound: miR-619-5p: isolated microRNA miR-619-5p (SEQ ID NO:8) (GCUGGGAUUACAGGCAUGAGCC; listed as RNA, chemistry not given here; listed as Homo sapiens)
CD34+ Differentiation (# CFU-GM) (CD34+ stem cell): 46 # CFU-GM

Compound: miR-1273f: isolated microRNA miR-1273f (SEQ ID NO:9) (GGAGAUGGAGGUUGCAGUG; listed as RNA, chemistry not given here; listed as Homo sapiens)
CD34+ Differentiation (# CFU-GM) (CD34+ stem cell): 9 # CFU-GM

Compound: miR-1303: isolated microRNA miR-1303 (SEQ ID NO:7) (UUUAGAGACGGGGUCUUGCUCU; listed as RNA, chemistry not given here; listed as Homo sapiens)
CD34+ Differentiation (# CFU-GM) (CD34+ stem cell): 32 # CFU-GM

Compound: miR-4497: isolated microRNA miR-4497 (SEQ ID NO:6) (CUCCGGGACGGCUGGGC; listed as RNA, chemistry not given here; listed as Homo sapiens)
CD34+ Differentiation (# CFU-GM) (CD34+ stem cell): 20 # CFU-GM

Compound: miR-7851-3p: isolated microRNA miR-7851-3p (SEQ ID NO:10) (UACCUGGGAGACUGAGGUUGGA; listed as RNA, chemistry not given here; listed as Homo sapiens)
CD34+ Differentiation (# CFU-GM) (CD34+ stem cell): 14 # CFU-GM
